Read-outs that look alike come from different tables or passages of the source.
Key:
[1] = test system: Pseudomonas aeruginosa, PA01; test: MIC of antibiotics with added chitosan-arginine (live/dead checkerboard); type: cell-based; conditions: for factor of decrease of MIC: addition of 4 μg/ml chitosan-arginine
Procedure: The assay was conducted as follows. In each case, the minimum inhibitory concentration (MIC) in μg/ml was determined for the antibiotic alone against Pseudomonas aeruginosa.

[2] = test system: MMRSA; test: Sensitization summary: MMRSA to Mupirocin; type: cell-based, Staphylococcus aureus; conditions: Mupirocin resistance breakpoint 8 μg/mL
Procedure: (§1) By definition, resistance is defined by a “resistance breakpoint” above which a bacterium is considered resistant (and is related to side effects and toxicity).
(§2) The plate was allowed to sit for 24 hours, before being centrifuged at 4000 RPM for 10 minutes, and resuspended in an appropriate enriched growth media (LB or Todd Hewitt Broth). The optical density of the plate was read over the course of 24 hours at 37° C. The optical density readings were used to compute a time to an arbitrary threshold of 0.25, which is correlated using a growth curve for this MMRSA, to virtual colony forming (vCFU) counts.

[3] = test system: Mupirocin and Methicilin resistant Staphylcoccus aureus (MMRSA, 2-4C strain); test: Checkerboard time course assay (vCFU) in water; type: cell-based, Staphylococcus aureus
Procedure: as §2

[4] = test system: MRSA; test: Sensitization summary: MRSA to Oxacillin; type: cell-based, Staphylococcus aureus
Procedure: as §1
(§3) Approximately 10^5 cells were added to each of the wells. […] Optical density readings of the plate were taken, and averaged to determine inhibited samples Inhibition is defined by the final optical density (OD) being less than or equal to ½ the control OD.

[5] = test system: MRSA strain MW-2 (ATCC BAA-1707); test: Chitosan-arginine/Oxacillin checkerboard growth inhibition assay; type: cell-based, Staphylococcus aureus; conditions: chitosan-arginine 1 μg/mL alone or Oxacillin 0.78 μg/mL alone
Procedure: Approximately 10^5 cells was added to each of the wells. The optical density of the plate was read over the course of 24 hours at 37° C.

[6] = test system: MRSA strain MW-2 (ATCC BAA-1707); test: Standard checkerboard assay in Mueller Hinton media, chitosan-arginine and Oxacillin; type: cell-based; conditions: Staphylococcus aureus
Procedure: Bacteria were incubated at 37° C. for the standard 20 hours. MRSA MIC values were obtained by OD595 (optical density). The entire experiment was repeated three times.

[7] = test system: MRSA strain MW-2 (ATCC BAA-1707); test: Checkerboard vCFU assay chitosan-arginine and Oxacillin in PBS; type: cell-based, Staphylococcus aureus; conditions: alone
Procedure: Approximately 10^6 cells/mL were added to each well. Incubation occurred at ambient temperature for 20 h, then bacteria were centrifuged and resuspended in an appropriate growth media. The optical density (OD) was read over the course of 18 h at 37° C. The time (in seconds) to an arbitrary threshold OD of 0.15 was used with reference to a growth curve, to calculate the initial bacterial concentration of bacteria (vCFU).

[8] = test system: P. aeuriginosa strain PA01 (ATCC BAA-47); test: Checkerboard assay chitosan-arginine and Tobramycin; type: cell-based; conditions: Pseudomonas aeruginosa, ATCCBAA47, read-out: Tobramycin (MIC), alone; determined alongside each C/A lot
Procedure: Bacteria were incubated at 37° C. for the standard 20 hours.
P. aeuriginosa produces the fluorescent pigment pyocyanin, which can be correlated with bacterial growth.

[9] = test system: VRE (Vancomycin resistant Enterococcus); test: Sensitization summary: VRE to Vancomycin; type: cell-based, Enterococcus faecium; conditions: for Antibiotic concentration (MIC) in presence of chitosan-arginine: 24 hour treatment
Excerpt: as §1

[10] = test system: K. pneumoniae; test: Sensitization summary: K. pneumoniae to Gentamicin; type: cell-based, Klebsiella pneumoniae
Procedure: as §1, §3

[11] = test system: A. baumannii; test: Sensitization summary: A. baumannii to Gentamicin; type: cell-based, Acinetobacter baumannii
Excerpt: as §1

[12] = 0 μg/ml chitosan-arginine added (antibiotic alone)
[13] = 0.5 μg/ml chitosan-arginine added
[14] = 1 μg/ml chitosan-arginine added
[15] = 2 μg/ml chitosan-arginine added
[16] = 4 μg/ml chitosan-arginine added, * = lowest value measured
[17] = with chitosan-arginine 0.125 μg/mL, 24 hour treatment

Compound	MIC of antibiotic [1, 12] [µg/mL]	MIC of antibiotic [1, 13] [µg/mL]	MIC of antibiotic [1, 14] [µg/mL]	MIC of antibiotic [1, 15]	factor of decrease of MIC [1]	MIC of antibiotic [1, 16]	also measured
O=C(O)c1cn(C2CC2)c2cc(N3CCNCC3)c(F)cc2c1=O [Ciprofloxacin]	2	1	1	.5 µg/mL	≥ 80	–	–
C/C(=C\C(=O)OCCCCCCCCC(=O)O)C[C@@H]1OC[C@H](C[C@@H]2O[C@H]2[C@@H](C)[C@H](C)O)[C@@H](O)[C@H]1O [Mupirocin]	–	–	–	–	–	–	MIC of antibiotic alone against resistant bacteria [2]: MMRSA (>64) μg/mL; effect of mupirocin alone on MMRSA ([3]; 1 μg/mL): completely ineffective; antibacterial effectiveness of Mupirocin alone ([3]; doses below 64 to 128 μg/mL): ineffective; mupirocin concentration at which MMRSA is sensitive ([3]; mupirocin alone, 24 hours in water): 128 µg/mL; lowest Mupirocin dose to which MMRSA is sensitized ([3]; with 4 μg/mL chitosan-arginine): 8 µg/mL
Cc1onc(-c2ccccc2)c1C(=O)N[C@@H]1C(=O)N2[C@@H]1SC(C)(C)[C@@H]2C(=O)O [Oxacillin]	–	–	–	–	–	–	MIC of antibiotic alone against resistant bacteria ([4]; MRSA, Oxacillin resistance breakpoint 4 μg/mL): MRSA (>25) μg/mL; Antibiotic concentration (MIC) in presence of chitosan-arginine ([4]; with chitosan-arginine 4 μg/mL, 24 hour treatment): 0.2 µg/mL; effect on growth of the bacteria, agent alone [5]: Neither antimicrobial alone had a significant an effect; MIC ([6]; read-out: MIC of Oxa alone): 4 µg/mL; MIC ([6]; read-out: MIC of Oxa with C/A): 1 µg/mL; bactericidal concentration [7]: > 6.25 µg/mL
CO[C@H]1/C=C/O[C@@]2(C)Oc3c(C)c(O)c4c(O)c(c(/C=N/N5CCN(C)CC5)c(O)c4c3C2=O)NC(=O)/C(C)=C\C=C\[C@H](C)[C@H](O)[C@@H](C)[C@@H](O)[C@@H](C)[C@H](OC(C)=O)[C@@H]1C [Rifampicin]	8	4	2	1 µg/mL	16	0.5 µg/mL	–
[Ag] [Silver]	0.042	0.021	0.021	0.005 µg/mL	≥ 40	≤ 0.001* μg/ml	–
NC[C@H]1O[C@H](O[C@H]2[C@H](O)[C@@H](O[C@H]3O[C@H](CO)[C@@H](O)[C@H](N)[C@H]3O)[C@H](N)C[C@@H]2N)[C@H](N)C[C@@H]1O [Tobramycin]	–	–	–	–	–	–	MIC [8]: 0.5 µg/mL
CN[C@H](CC(C)C)C(=O)N[C@H]1C(=O)N[C@@H](CC(N)=O)C(=O)N[C@H]2C(=O)N[C@H]3C(=O)N[C@H](C(=O)N[C@H](C(=O)O)c4cc(O)cc(O)c4-c4cc3ccc4O)[C@H](O)c3ccc(c(Cl)c3)Oc3cc2cc(c3O[C@@H]2O[C@H](CO)[C@@H](O)[C@H](O)[C@H]2O[C@H]2C[C@](C)(N)[C@H](O)[C@H](C)O2)Oc2ccc(cc2Cl)[C@H]1O [Vancomycin]	–	–	–	–	–	–	MIC of antibiotic alone against resistant bacteria ([9]; VRE, Vancomycin resistance breakpoint 32 μg/mL): VRE (>32) μg/mL; Antibiotic concentration (MIC) in presence of chitosan-arginine ([9]; with chitosan-arginine 2 μg/mL): 2 µg/mL; Antibiotic concentration (MIC) in presence of chitosan-arginine ([9]; with chitosan-arginine 4 μg/mL): 12.5 µg/mL
Gentamicin	–	–	–	–	–	–	MIC of antibiotic alone against resistant bacteria ([10]; K. pneumoniae, Gentamicin resistance breakpoint 64 μg/mL): K. pneumoniae (64) μg/mL; Antibiotic concentration (MIC) in presence of chitosan-arginine [10, 17]: 16 µg/mL; MIC of antibiotic alone against resistant bacteria ([11]; A. baumannii, Gentamicin resistance breakpoint 64 μg/mL): A. baumannii (64) μg/mL; Antibiotic concentration (MIC) in presence of chitosan-arginine [11, 17]: 16 µg/mL
Neomycin	8	4	2	1 µg/mL	16	0.5 µg/mL	–

— patent publication US8916542B2, “Chitosan derivatives, compositions and related methods of use” (Synedgen, Inc., priority 2008, dated 2014)
